Reference: US8293784B2, “α-amino acid derivatives for improving solubility” (Merck Patent GmbH, priority 2007, dated 2012)
Values after ≈ are worked out from the molar mass of the structure shown. Where two headings read alike, the source gives them in different places.

Columns and labels:
[1] = Solubility of PBSA in aqueous solubiliser solutions, dissolved fraction determined by HPLC; assay type: physicochemical; details: thermodynamic from solid, filtered
Description: Firstly, 4% aqueous solutions of ectoine, creatinine and pyrrolidonecarboxylic acid are prepared. The active compound PBSA is subsequently dispersed in the solution in excess. The pH of the suspension is adjusted to 4.6. Undissolved active compound is filtered off after stirring for 1 hour. The dissolved active-compound fraction is determined by high-performance liquid chromatography. The experiment without solubiliser serves as comparison. In the case of dissolution of PBSA in aqueous creatinine solution, the solubility is additionally determined at pH 5.7, i.e. in this case the pH is not restored to 4.6.

[2] = Visual assessment of the increase in solubility due to ectoine (clear vs cloudy solution); assay type: physicochemical; details: active compound incorporated at 1% (tiliroside) or 1.5% (5,7-dihydroxy-2-methylchromone)
Description: Firstly, 4% ectoine solutions are prepared in water and in a water/ethanol mixture (3:1). The active compound to be dissolved is subsequently incorporated into the two ectoine solutions in an amount of 1% and 1.5% respectively. The respective ectoine-free batches serve as comparison.

[3] = 4% of ectoine in ethanol/water 3:1
[4] = Ethanol/water 3:1, no ectoine (comparison)

Appearance of solution (visual solubility assessment) [2, 3] | Appearance of solution (visual solubility assessment) [2, 4] | SMILES | solubility at 1 h ([1]; 4% aqueous creatinine solution, pH 4.6, aqueous with cosolvent or surfactant or cyclodextrin, pH of the dispersion set to 4.6, stirred 1 hour, read-out: Solubility of PBSA in water comprising 4% of creatinine) [µg/mL] | solubility at 1 h ([1]; 4% aqueous creatinine solution, pH 5.7, aqueous with cosolvent or surfactant or cyclodextrin, pH of the dispersion 5.7 (pH not restored to 4.6), stirred 1 hour, read-out: Solubility of PBSA in water comprising 4% of creatinine) [µg/mL] | solubility at 1 h ([1]; 4% aqueous ectoine solution, pH 4.6, aqueous with cosolvent or surfactant or cyclodextrin, pH of the dispersion set to 4.6, stirred 1 hour, read-out: Solubility of PBSA in water comprising 4% of ectoine) [µg/mL] | solubility at 1 h ([1]; 4% aqueous pyrrolidonecarboxylic acid solution, pH 4.6, aqueous with cosolvent or surfactant or cyclodextrin, pH of the dispersion set to 4.6, stirred 1 hour, read-out: Solubility of PBSA in water comprising 4% of pyrrolidonecarboxylic acid) [µg/mL] | solubility at 1 h ([1]; water without solubiliser, pH 4.6, aqueous buffer, no solubiliser, pH of the dispersion set to 4.6, stirred 1 hour, read-out: Solubility of PBSA in water) [µg/mL]
– | – | O=S(=O)(O)c1ccc2[nH]c(-c3ccccc3)nc2c1 [PBSA, 2-phenylbenzimidazole-5-sulfonic acid] | 940 (≈ 3430 µM) | 8500 (≈ 31000 µM) | 600 (≈ 2190 µM) | 340 (≈ 1240 µM) | 340 (≈ 1240 µM)
clear solution | cloudy solution | Cc1cc(=O)c2c(O)cc(O)cc2o1 [5,7-Dihydroxy-2-methyl-chromone, 5,7-dihydroxy-2-methylchromone] | – | – | – | – | –
clear solution | cloudy solution | O=C(/C=C/c1ccc(O)cc1)OC[C@H]1O[C@@H](Oc2c(-c3ccc(O)cc3)oc3cc(O)cc(O)c3c2=O)[C@H](O)[C@@H](O)[C@@H]1O [Tiliroside, tiliroside] | – | – | – | – | –
